# pKi: −log10 of the molar value. Where two headings read alike, the source gives them in different places.
# Key:
# [1] = target: 5-HT2C (Homo sapiens (Human), UniProt P28335); assay: 5-HT2C binding assay ([3H]-Mesulergine, HEK293 membranes)
# [2] = tested on: male Wistar rats; assay: SCORE EEG/EMG sleep-wake monitoring: sleep continuity, number of arousals, depth of sleep; type: in vivo, rat; details: 30 mg/kg PO
# Procedure: Example 30. Experimental Details and Methods for Determining Sleep Continuity, Number of Arousals, and Depth of Sleep
# Treatment detail plots (see, e.g., FIGS. 1-10) depict pre- and post-treatment time series plot ±30 hours before and after treatment at CT-18 (6-hours after lights-off) or pre- and post-treatment time series plots 29 hr before and 31 hr after treatments at CT-5 (5-hours after lights-on). Treatment occurred at the beginning of the hour marked by a triangle on the abscissa of the plot. Variables were computed in hourly bins.
# All data were plotted as group mean±SEM (see, e.g., FIGS. 1-10). The gray shaded area encompasses the vehicle treatment mean±SEM. Along the x-axis, time of treatment is marked by a triangle unless noted otherwise. Along the x-axis, light/dark bars indicate lights on/off.
# Adult, male Wistar rats (approximately 270 g at time of surgery, Charles River Laboratories) were administered dexmedetomidine 25 μg/kg and anesthetized (2% isoflourane in 95/5 oxygen, to effect) and surgically prepared with a cranial implant that permitted chronic electro-encephalogram (EEG) and electromyogram (EMG) recording. Body temperature and locomotor activity were monitored via a miniature transmitter (Minimitter Series PDT4000 E-Mitter, Bend, Oreg.) surgically placed in the abdomen during the same anesthetic event when the cranial portion was implanted. The cranial implant consisted of miniature stainless steel screws (2 frontal [+3.9 AP from bregma, 2.0 ML], 2 occipital [−6.4 AP, 5.5 ML], and 1 ground placed sagittaly and posterior to lambda) for EEG recording. Two Teflon-coated multi-strand stainless steel wires were positioned under the nuchal trapezoid muscles for EMG recording. All leads were soldered to a miniature connector (Omnetics, Minneapolis, Minn.) and gas sterilized with ethylene oxide prior to surgery. The implant assembly was affixed to the skull by the combination of the EEG recording screws, cyanoacrylate applied between the hermetically sealed implant connector and skull, and a UV-curing dental acrylic. An analgesic (meloxicam 1 mg/kg IP) was administered 1 day prior to surgery and daily for 2 days post-surgery. Neosporin with lidocaine was applied topically to the peri-implant margin. At least three weeks were allowed for surgical recovery prior to any data collection.
# Rats were housed individually within specially modified Innovive® cages equipped with a custom-built ultra-low-torque slip-ring commutator and a customized Innovive® polycarbonate cage-top. These cages were located on shelves of a modified stainless steel animal rack that was pre-wired for physiological and behavioral data collection. Food and water were available ad libitum and the ambient temperature was 22±1° C. A 24-hr light-dark cycle (LD 12:12) was maintained throughout the study using LED lighting strips. Light intensity averaged 35 lux at mid-level inside the cage. Relative humidity averaged 50% approximately. Animals were undisturbed for two days before and after each treatment.
# Sleep and wakefulness were determined using SCORE™—a Linux and Windows-10 real-time computer-based sleep-wake and physiological monitoring system. Validation of the SCORE™ sleep stage identification algorithm in rodents and the system's utility in pre-clinical drug discovery and evaluation have been previously described (Edgar et al. Psychopharmacology 1991, 105, 374; Gilmour et al., Neuropharmacology 2012, 64, 224; McCarthy et al., 2016, Neuropharmacology 108, 415; Olive et al., J. Pharmacology &Experimental Therapeutics 1998 285, 1073; Phillips et al, Neuropharmacology 2012, 62, 1359; Seidel et al. J Pharmacology &Experimental Therapeutics 1995, 275, 263; Van Gelder et al. Sleep 1991, 14, 48). […]
# [3] = Human clearance and half-life projections (allometric scaling from monkey clearance)
# Procedure: (§1) The biological activity of the compounds of the present disclosure may be determined utilizing projected human clearance (CL) and half-life in humans. An allometric scaling method, using a single species scaling from monkey clearance was used to project clearance. Human volume of distribution (Vd) was projected from animal Vd, adjusted for differences in plasma protein binding and assuming similar unbound Vd across species. Human half-life (T1/2) was calculated based on a one-compartmental model, using a relationship of T1/2=0.693×(predicted Vd/predicted CL).
# as §1, with “An” for “The biological activity of the compounds of the present disclosure may be determined utilizing projected human clearance (CL) and half-life in humans. An”
# 5-HT2C, sequence (P28335 33-458): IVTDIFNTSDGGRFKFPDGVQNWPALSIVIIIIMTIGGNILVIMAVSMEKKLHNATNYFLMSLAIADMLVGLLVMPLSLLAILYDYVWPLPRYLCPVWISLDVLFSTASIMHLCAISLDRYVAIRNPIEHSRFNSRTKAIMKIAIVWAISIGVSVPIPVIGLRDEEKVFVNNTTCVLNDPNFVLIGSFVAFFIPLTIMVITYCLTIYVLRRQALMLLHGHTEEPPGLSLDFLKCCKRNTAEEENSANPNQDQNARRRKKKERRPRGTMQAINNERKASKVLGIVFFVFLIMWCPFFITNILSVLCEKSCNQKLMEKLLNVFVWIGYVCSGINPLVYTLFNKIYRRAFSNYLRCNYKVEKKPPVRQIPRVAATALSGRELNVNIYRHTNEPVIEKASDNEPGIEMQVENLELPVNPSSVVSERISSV
smiles,measurement,setting,value
"Cc1ccc2c(c1)Oc1cc(C)ccc1C(N1CCN(CC(C)(C)C(=O)O)CC1)=N2 [Compound No. 7, 3-(4-(3,7-dimethyldibenzo[b,f][1,4]oxazepin-11-yl)piperazin-1-yl)-2,2-dimethylpropanoic acid]",pKi,[1],< 6.30
same,pKi,[1]; numeric values,5.65
same,reductions in the number of transitions from sleep to wake per hour relative to controls,"[2]; CT-5, male Wistar rats",40-50%
same,increase in sleep bout-length per hour relative to vehicle control,"[2]; CT-18, male Wistar rats",3-4 fold
same,normalized EEG delta power (slow wave activity) during nonREM sleep,"[2]; CT-18, male Wistar rats",increases in EEG slow wave activity in nonREM sleep
same,"T1/2 (h), projected human half-life","[3]; one-compartmental model, T1/2=0.693×(predicted Vd/predicted CL)",4 to 8 h
same,"CL (mL/min/kg), projected human clearance",[3]; single species scaling from monkey clearance,1.3 mL/min/kg

# Source: patent publication US11046651B2, “Piperazine substituted azapine derivatives and uses thereof” (Alairion, Inc., priority 2019, dated 2021)
